Assay results published in patent publication US11723899B2, “ALK2 inhibitors for the treatment of anemia” (Incyte Corporation, priority 2020, dated 2023).

Assays:
[1] = test system: mouse adenine-induced chronic kidney disease model; assay: Mouse adenine-induced chronic kidney disease (anemia) model; format: in vivo, male C57BL/6 mice
Excerpt: The anemia associated with chronic kidney disease has been associated with the hepatic hormone hepcidin (Akchurin et al., Am. J. Physiol. Renal Physiol., 2016). Therefore, reduction of hepcidin levels through inhibition of ALK2 would be a useful therapeutic strategy to combat this aspect of the disease. To test this hypothesis, a murine model of chronic kidney disease that also leads to anemia was used. Orally administered adenine metabolizes to 2,8-dihydroxyadenine, which crystalizes in the tubules of the kidney. Build-up of this metabolite causes kidney injury (nephropathy), inflammation, and subsequently anemia. Mice (typically male C57B/6 mice age 6-10 weeks) are administered adenine (maximum dose of 50 mg/kg QD) by oral gavage for 28 days. During this time, mice are monitored weekly for changes in kidney function and hematology. Anemia onset is tracked by blood draws to measure complete blood count (CBC), which includes red blood cell count, hemoglobin levels, and hematocrit. Drops in these blood parameters would be indicative of anemia. […] Changes in kidney function are detectable within 10 days of adenine administration (Jia et al., BMC Nephrology, 2013; Rahman et al., PLoS One, 2018), and are monitored by analysis of plasma levels of creatinine and blood urea nitrogen (BUN) (Rahman et al., PLoS One, 2018). Increases in plasma creatinine, plasma BUN, and urine protein (>2 fold) are indicative of kidney injury. Body weights are also monitored weekly as a sign of overall fitness.
To investigate the ability of an ALK2 inhibitor to alleviate the anemia brought on by kidney injury, male C57BL/6 mice (Charles River Laboratories) were administered oral adenine (45 mg/kg QD) for 28 days. A cohort of mice were also administered vehicle solution to maintain a normal blood level baseline for comparison (n=10). Mice were monitored weekly for changes in blood parameters by CBC, and for changes in weight. Starting at 14 days post first administration of adenine, mice receiving adenine were dosed with either 30 mg/kg QD (n=8) or 100 mg/kg QD (n=9) Compound A, or vehicle control (n=10). Mice were dosed for 21 days, which includes […] after the cessation of adenine administration. Final analyses were performed one week after the last dose of Compound A, 42 days after adenine administration began. Shown in FIG. 1 are results from this experiment.
A study was performed to investigate the effects of starting the dosing of Compound A later in kidney disease progression at the point when hepcidin levels increase, at […]. Male C57BL/6 mice were administered oral adenine (45 mg/kg QD) for 28 days. A cohort of mice were also administered vehicle solution to maintain a normal blood level baseline for comparison (n=8). Mice were monitored weekly for changes in blood parameters by CBC, and for changes in weight. The mice receiving adenine were dosed with either 30 mg/kg QD (n=8) or 100 mg/kg QD (n=8) Compound A, or vehicle control (n=8). Compound A dosing began at either 14 or 21 days after adenine administration began and continued for 21 days, followed by one more week until blood analysis. The dosing that began on day 14 was termed “prophylactic” as it began before the increase in hepcidin occurs. Dosing that began on day 21 was termed “concomitant” as the dosing coincided with hepcidin level increase. […] Overall, Compound A was able to improve the anemia arising in this model. […]

[2] = Phase 1a single-dose, dose-escalation safety and tolerability study in healthy adult participants; format: in vivo, human; conditions: single oral dose 10, 25, 50, 100 and 175 mg
Excerpt: A Phase 1a, double-blind, randomized, placebo-controlled, single-dose, dose-escalation and food-effect study is being conducted with 2-amino-N-(4-hydroxybicyclo-[2.2.2]octan-1-yl)-5-(4-((1R,5S)-3-(tetrahydro-2H-pyran-4-yl)-3-azabicyclo-[3.1.0]hexan-1-yl)phenyl)nicotinamide (“Compound A”) in order to assess the safety, tolerability, and pharmacokinetics (PK) of Compound A when administered orally as a single dose to healthy adult participants.
Compound A has been administered as a single dose at the dose levels of 10 mg, 25 mg, 50 mg, 100 mg, and 175 mg once to 9 healthy participants at each dose level.

[3] = 28-day repeat dose toxicity study in rats; format: in vivo
Excerpt: (§1) Iron parameters and liver functional tests will be monitored clinically.
(§2) Potential increases in heart rate, skin/hair, and the gastrointestinal track will also be monitored clinically.

[4] = 28-day repeat dose toxicity study in dogs; format: in vivo
Excerpt: as §1, §2

Nc1ncc(-c2ccc([C@@]34C[C@@H]3CN(C3CCOCC3)C4)cc2)cc1C(=O)NC12CCC(O)(CC1)CC2 [Compound A, 2-amino-N-(4-hydroxybicyclo-[2.2.2]octan-1-yl)-5-(4-((1R,5S)-3-(tetrahydro-2H-pyran-4-yl)-3-azabicyclo-[3.1.0]hexan-1-yl)phenyl)nicotinamide]
hemoglobin levels relative to normal range ([1]; 100 mg/kg QD, prophylactic dosing (from day 14), FIG. 2): returned hemoglobin levels that are within the normal range
body weights ([1]; 30 or 100 mg/kg QD for 21 days from day 14, vs adenine without Compound A, FIG. 1 right): increased weights
hemoglobin levels, prophylactic dosing ([1]; 30 or 100 mg/kg QD for 21 days starting day 14 of adenine, FIG. 2 left): dose dependent increase in hemoglobin levels
hemoglobin levels, concomitant dosing ([1]; 30 or 100 mg/kg QD for 21 days starting day 21 of adenine, FIG. 2 right): significant increases in hemoglobin levels that were dose dependent
hemoglobin (HGB) levels ([1]; day 42, 30 or 100 mg/kg QD for 21 days starting 14 days after first adenine (45 mg/kg QD, 28 days), vs adenine + vehicle, FIG. 1 left): dose-dependently improved hemoglobin (HGB) levels
severe adverse events (SAEs) ([2]; 9 healthy participants per dose level): No severe adverse events (SAEs) have been observed
severity of adverse events (AEs) ([2]; all dose levels): mild and self-limiting
findings at the no observed adverse effect level (NOAEL) ([3]; at NOAEL): slight increases in iron staining in the liver with no associated increase in liver function tests (LFTs) or microscopic findings in the liver
liver findings at higher doses ([3]; doses above NOAEL): increases in serum alanine aminotransferase (ALT) and aspartate aminotransferase (AST) and microscopic findings in the liver
additional adverse findings considered related to inhibition of ALK3 ([3]; higher doses, species not given): mucosal hypertrophy and hyperplasia in the gastrointestinal tract with associated changes in the mesenteric lymph nodes, anagen phase arrest of hair follicles, and further alterations in iron metabolism
findings at the no observed adverse effect level (NOAEL) ([4]; 28-day repeat dose, at NOAEL): slight increases in iron staining in the liver with no associated increase in liver function tests (LFTs) or microscopic findings in the liver
liver findings at higher doses ([4]; 28-day repeat dose, doses above NOAEL): increases in serum alanine aminotransferase (ALT) and aspartate aminotransferase (AST) and microscopic findings in the liver
additional adverse findings considered related to inhibition of ALK3 ([4]; 28-day repeat dose, higher doses): mucosal hypertrophy and hyperplasia in the gastrointestinal tract with associated changes in the mesenteric lymph nodes, anagen phase arrest of hair follicles, and further alterations in iron metabolism
heart rate ([4]; higher doses): increased heart rates
